The results in this text go back to patent US12024707B2, “Methods and compositions for modulating lncRNAs and methods of treatment based on lncRNA expression” (Washington University, priority 2020, dated 2024).

Data set [1] deals with HT29 RAMS11 overexpressing cells. Put plainly: High-throughput viability assay (resazurin), 119 FDA-approved anticancer drugs, RAMS11 overexpressing cells (Clone1, Clone2). To be noted: for Viability Fold Change: 72 h, vs empty vector control. On the technique in general: Alamar Blue is a resazurin reagent that responds to reducing activity.
Description: (§3) The FDA-approved anticancer panel included multiple classes of drugs such as kinase inhibitors, alkylating agents, antineoplastic antibiotics, anthracycline antibiotics, and antineoplastic agents (topoisomerase inhibitors). The HT29 RAMS11 overexpressing and control cells were treated for 72 h to assess cellular viability upon drug treatment (FIG. 14a and TABLE 3). […] Due to 5-FU commonly used to treat mCRC, we further determined if RAMS11 expression altered drug sensitivity in treated cells.
(§4) Drugs were diluted in DMSO to 1 mM and the well assignments were rearranged so drugs were confined to the inner 60 wells of 96-well plates. […] The next day serial diluted drug was added to pre-seeded plates in media containing 1% DMSO vehicle, using a Robbins Hydra 96 micro dispenser. Two 96-well plates of cells were used as vehicle controls. The plates were incubated for 3 days. Percent viability was scored by incubating cells for 3 h with resazurin sodium (0.023 mg/mL, Sigma R7017). The reaction was stopped by the addition of SDS (1% final concentration). Fluorescence Ex/Em 540/590 was read in a Biotek Synergy H1 plate reader (Winooski, VT). The fluorescence values for the vehicle plates were averaged and percent viability was determined by the formula: Percent viability=(average vehicle−value)/(average vehicle−average resazurin in media blank)×100. […] Assays were repeated more than three times.
Data set [2] has as its system wildtype (WT) HT29 cells. The experiment in a line: Tail vein lung metastasis model, 5FU treatment, BLI imaging, wildtype cells. Format: in vivo, NOD scid mice. The conditions noted are these: WT cell-injected mice, 50 mg/kg 5FU, Week 3. As for the experimental part: (§1) To determine if cells with high RAMS11 expression promote resistance to fluorouracil (5FU) treatment, 9-week-old female NOD scid mice were injected with 1 e6 wildtype (WT) or RAMS11-overexpressing (RAMS11) HT29 cells (with GFP-luciferase incorporated) via the tail vein, a common model of lung metastasis^13. Seventy-two hours after tumor cell injection mice were subcutaneously treated with vehicle (PBS) or 50 mg/kg 5FU and imaged weekly. […] Further, high expression of RAMS11 promoted resistance to treatment with 5FU.

Data set [3] concerns LoVo RAMS11 CRISPR KO cells. The experiment in a line: Individual drug IC50 / cell viability assays in RAMS11 CRISPR KO cells. Format: cell-based. As for the experimental part: The NIH approved oncology library of 119 drugs (AOD6 plate 4825-1 and AOD6 plate 4826) was received from the NIH National Cancer Institute DTP Developmental Therapeutics Program. Drugs were diluted in DMSO to 1 mM and the well assignments were rearranged so drugs were confined to the inner 60 wells of 96-well plates. HT29 RAMS11 overexpressing Clone1 and Clone2 cell lines were seeded at 5000 cells per well in a 96-well plate. The next day serial diluted drug was added to pre-seeded plates in media containing 1% DMSO vehicle, using a Robbins Hydra 96 micro dispenser. Two 96-well plates of cells were used as vehicle controls. The plates were incubated for 3 days. Percent viability was scored by incubating cells for 3 h with resazurin sodium (0.023 mg/mL, Sigma R7017). The reaction was stopped by the addition of SDS (1% final concentration). Fluorescence Ex/Em 540/590 was read in a Biotek Synergy H1 plate reader (Winooski, VT). The fluorescence values for the vehicle plates were averaged and percent viability was determined by the formula: Percent viability=[…]/(average vehicle−average resazurin in media blank)×100. We removed drugs that were undetectable, or out of range, by resazurin assay, leaving 118 drugs to assess in the study (TABLE 3). Values with more than a 1.5-fold change in both RAMS11 Clone1 and Clone2 overexpressing cell lines were used to determine significance. Individual drug IC50 assays were done in a similar manner as described above with CRISPR KO cells. Assays were repeated more than three times.

Data set [4] relates to SW620 cells with silenced RAMS11. The experiment in a line: Drug IC50 / cell viability assays in cells with transient silencing of RAMS11.
Description: as §3, §4
The test system of data set [5] is RAMS11-overexpressing (RAMS11) HT29 cells. Put plainly: Tail vein lung metastasis model, 5FU treatment, BLI imaging, RAMS11-overexpressing cells. To be noted: RAMS11 cell-injected mice, 50 mg/kg 5FU. Format: in vivo, NOD scid mice. On the procedure:
as §1

The subject of data set [6] is LoVo cells. Format: cell-based. From the text: (§2) Exiqon's locked nucleic acid (LNA) GapmeRs antisense oligonucleotides (ASOs) were used. They contain a central stretch (gap) of monomers flanked by blocks of LNA modified nucleotides that (i) increase the target affinity and nuclease resistance of the oligo and (ii) the gap activates RNase H cleavage of the target RNA upon binding. The LNATM oligonucleotides can be designed for any region of the target RNA sequence. In addition, the design flexibility afforded by LNATM means that it is possible to design multiple LNATM antisense oligonucleotides to the same target sequence, which serve as useful experimental controls. […] NO: 41) and […] NO: 42).

The test system of data set [7] is RAMS11. Put plainly: RAMS11 knockdown by ASOs, qPCR. The conditions noted are these: in vivo optimized LNA GapmeR ASOs. Format: cell-based.
Description: as §2, with “42). Total RNA was isolated for each CRC cell line using Takara Bio NucleoSpin RNA (Takara, Mountain View, CA). Total RNA was then transcribed to cDNA with SuperScript Ill First strand cDNA system (Invitrogen) and quantified using Fast Sybr Green Master Mix (Invitrogen) as per the manufacturer's protocol. Primer sequences are available in TABLE 5.” for “42).”
In general terms: Quantitative PCR measures a nucleic acid by following its amplification.

Data set [8] has as its system TOP2α promoter. Put plainly: Chromatin immunoprecipitation (ChIP) qPCR at TOP2α promoter, LoVo. The class given is cell-based. To be noted: LoVo cells. As for the experimental part: ChIP qPCR assays were conducted by first sonicating five million cells in SDS lysis buffer (1% SDS, 500 mM EDTA, 50 mM Tris-HCl pH 8). […] The next day Dynabeads Protein G (Invitrogen) were added to the antibody lysate mixture and rotated for 1 h. Bead/lysate mixture was then washed once with low salt wash buffer (0.1% SDS, 1% Triton X-100, 2 mM EDTA, 20 mM Tris-HCl pH 8, 150 mM NaCl), then high salt buffer (0.1% SDS, 1% Triton X-100, 2 mM EDTA, 20 mM Tris-HCl pH 8, 500 mM NaCl), lithium chloride wash buffer (0.25 M lithium chloride, 1% NP40, 1% sodium deoxycholate, 1 mM EDTA, 10 mM Tris-HCl pH 8), and finally two washes with Tris-HCl EDTA buffer (10 mM Tris-HCl pH 8, 1 mM EDTA). DNA was eluted by incubating beads for 30 min at room temperature with SDS elution buffer (1% SDS, 0.1 M sodium bicarbonate), followed by 1.25 M NaCl and 2.5 mg/mL RNAse A at 95° for 15 min shaking followed by addition of proteinase K buffer (1 μL 10 mg/mL proteinase K, 5 μL […], 10 μL 1 M Tris pH 7.5) shaking at 60° for 15 min. DNA was then isolated using phenol:chloroform:isoamyl alcohol extraction following the general protocol as mentioned above. […] The % input calculations were determined by comparing CT values from input DNA and ChIP DNA for the TOP2A target promoter region using the following equation: % Input=% of starting input fraction×2^[CT(input)−CT(Chlp)] […]

Setting [9] is: OE1 (RAMS11 overexpression clone 1), 0.1 uM drug.
Where [10] appears, read: OE1 (RAMS11 overexpression clone 1), 1 uM drug.
The mark [11] stands for this setting: OE1 (RAMS11 overexpression clone 1), 10 uM drug.
Where [12] appears, read: OE2 (RAMS11 overexpression clone 2), 0.1 uM drug.
The mark [13] stands for this setting: OE2 (RAMS11 overexpression clone 2), 1 uM drug.
The mark [14] stands for this setting: OE2 (RAMS11 overexpression clone 2), 10 uM drug.

A value given as a limit tells only on which side of the number the result lay.

For `O=c1[nH]cc(F)c(=O)[nH]1` [5-FU, fluorouracil, reference compound], the “Viability Fold Change” value in data set [1] (setting [9]) stood at 0.9856; in data set [1] (setting [10]), 0.9553; in data set [1] (setting [11]), 0.9891; in data set [1] (setting [12]), 0.9406; in data set [1] (setting [13]) it was 0.9417; in data set [1] (setting [14]) it was 1.021. Besides, in data set [2], the “decrease in ex vivo BLI of lung tissue” value was determined as 55%. For the same molecule, the “increase in drug sensitivity” value in data set [3] (LoVo RAMS11 CRISPR1 compared with wild-type cells) is recorded as 1.7 fold; in data set [3] (LoVo RAMS11 CRISPR2 compared with wild-type cells), 5.8 fold; in data set [4] (SW620, RAMS11 siRNA1 relative to scrambled control), > 1.53 fold; in data set [4] (SW620, RAMS11 siRNA2 relative to scrambled control) it was > 1.59 fold. Further, the “change between vehicle and 5FU-treated mice, in vivo and ex vivo lung BLI” value in data set [5] is “no significant change”.
Consider `O=C1[O][Pt]2([NH][C@@H]3CCCC[C@H]3[NH]2)[O]C1=O` [oxaliplatin, reference compound], for which the “effect of cell viability” value in data set [1] (HT29 RAMS11 overexpressing cells) and in data set [3] (LoVo RAMS11 CRISPR KO cells) was “did not see a significant effect” throughout. In addition, the “Viability Fold Change” value in data set [1] (setting [9]) was 0.9127; in data set [1] (setting [10]) it was 0.9881; in data set [1] (setting [11]), 1.33; in data set [1] (setting [12]), 0.9671; in data set [1] (setting [13]), 1.102; in data set [1] (setting [14]) it was 1.427. Further, in data set [4] (SW620 cells with silenced RAMS11), the “effect of cellular viability” value is recorded as “did not have a significant effect”.
With “ASO #1: LNA GapmeR antisense oligonucleotide against RAMS11: CAACTTCCAGCAAGAT (SEQ ID NO: 41) (LNA gapmer, pattern not given here)”, the cell viability entry in data set [6] is listed as “do not alter cell viability”. For the same molecule, the RAMS11 knockdown entry in data set [7] is “most potent”.
On to “ASO #2: LNA GapmeR antisense oligonucleotide against RAMS11: AGAACTGCTAAAAGTG (SEQ ID NO: 42) (LNA gapmer, pattern not given here)”, for which, in data set [6], the cell viability entry was “do not alter cell viability”. For the same molecule, in data set [7], the RAMS11 knockdown result is reported as “most potent”.
In the case of “CBX4 siRNA: custom silencer select siRNA targeting CBX4, SEQ ID NO: 35 and 36 (chain 1 UAUGGGUUCAUCCAGGUCUGA; chain 2 AGACCUGGAUGAACCCAUATT; chemistry not given here)”, in data set [8], the “H3K4me3 at the TOP2α promoter” value was “decrease” and the “decrease in CBX4 occupancy at the TOP2α promoter” value was 78%.
